Data taken from paper PMC10712727, “Safety, Tolerability, and Pharmacokinetics of Senaparib, a Novel PARP1/2 Inhibitor, in Chinese Patients With Advanced Solid Tumors: A Phase I Trial” (The Oncologist, 2023).

System: patients with advanced solid tumors
Experiment: Safety: treatment-emergent and senaparib-related adverse events graded per NCI CTCAE v4.03
Assay type: in vivo
Conditions: for ALT increased, All / ALT increased, Gr≥3 / AST increased, All / AST increased, Gr≥3 / Abdominal distension, All / Abdominal distension, Gr≥3 / Anemia (incl. hemoglobin decreased), All / Anemia (incl. hemoglobin decreased), Gr≥3 / Appetite decreased, All / Appetite decreased, Gr≥3 / Asthenia, All / Asthenia, Gr≥3 / Blood bilirubin increased, All / Blood bilirubin increased, Gr≥3 / Blood creatinine increased, All / Blood creatinine increased, Gr≥3 / Hypokalemia, All / Hypokalemia, Gr≥3 / Hyponatremia, All / Hyponatremia, Gr≥3 / Nausea, All / Nausea, Gr≥3 / Neutrophil count decreased, All / Neutrophil count decreased, Gr≥3 / Pain in extremity, All / Pain in extremity, Gr≥3 / Platelet count decreased, All / Platelet count decreased, Gr≥3 / Protein in urine, All / Protein in urine, Gr≥3 / Vomiting, All / Vomiting, Gr≥3 / WBC decreased, All / WBC decreased, Gr≥3: TEAE
Procedure: This phase I, open-label, multicenter, dose-escalation, and dose-expansion study was conducted at three national clinical institutions in China. […] At baseline, all patients enrolled in the dose-escalation phase had to have at least one evaluable lesion, and those in the dose-expansion period had to have at least one measurable lesion, according to Response Evaluation Criteria in Solid Tumors version 1.1 (RECIST v1.1).[16] Entry to the dose-expansion cohort required the presence of a BRCA mutation, with the exception of patients with ovarian carcinoma, fallopian tube carcinoma, and primary peritoneal carcinoma. Full study eligibility criteria are provided in Supplementary Table S1.
Dose escalation was conducted using a modified Fibonacci 3 + 3 method (Supplementary Fig. S1).[17] Patients were administered oral senaparib from a planned starting dose of 2 mg once daily (QD), with preliminary dose escalation to 120 mg via nine dose groups, in order of their entry into the study. At a given dose level, each patient received a single dose of senaparib followed by a 7-day washout period. They then entered a continuous dosing period to confirm the safety and PK profile, in which they received senaparib QD from day 1 to day 21 of each 3-week cycle. Progression to the next higher dose required approval from the Data Safety Monitoring Committee (DSMC) upon review of the safety and PK data of the previous dose. A 50-mg twice-daily (BID) dosing group was added (planned enrollment, n = 6 patients) based on a DSMC review of the safety, PK, and efficacy analysis of the completed QD dose groups in the phase I clinical trial of senaparib dose escalation in Australia (NCT03507543), which commenced prior to the start of this trial.
The dose-expansion period included 3 populations: dose groups in which at least one patient achieved complete response (CR) or partial response (PR) per RECIST v1.1[16] and 1 dose group higher (evaluated for safety), as well as the dose group at the maximum tolerated dose (MTD)/recommended phase II dose (RP2D). Each of these groups included those patients in the respective dose-escalation group plus a planned additional 10 patients (approximately 20 patients in the MTD/RP2D group) with BRCA^mut+ solid tumors (ovarian, breast, or prostate cancer were preferred, and ovarian cancer could be BRCA wild type). Patients received senaparib monotherapy orally QD or BID (50-mg dose only) over each 3-week cycle until disease progression or unacceptable toxicity.
DLTs were predefined toxicities (Supplementary Table S2) recorded over the 7 days following the single-dose administration of senaparib and during the first treatment cycle (day 1-day 21) for each dose group in the dose-escalation period only. The MTD was defined as the maximum dose at which ≤1/6 patients experienced a DLT. Senaparib PK parameters were derived from blood samples collected from patients after the single administration, and at regular intervals during the first cycle of the dose-escalation and dose-expansion periods. Plasma concentrations of senaparib were determined using high-performance liquid chromatography-tandem mass spectrometry. Tumor response was assessed every 6 weeks per RECIST v1.1,[16] recording objective response rate (ORR), disease control rate (DCR), duration of response (DOR), and progression-free survival (PFS) by dose level for all patients and for those harboring BRCA^mut+ tumors.

O=C(c1cc(Cn2c(=O)[nH]c(=O)c3c(F)cccc32)ccc1F)N1CCN(c2ncccn2)CC1 [Senaparib]
3 (75.0) n (%): TRAEs Grade ≥3, patients (120 mg QD n = 4)
0 n ev: TEAEs leading to dose reduction, events (120 mg QD n = 4)
1 (33.3) n (%): Abdominal distension, All (5 mg QD n = 3) | Anemia (incl. hemoglobin decreased), Gr≥3 (5 mg QD n = 3) | Appetite decreased, All (5 mg QD n = 3) | Blood bilirubin increased, All (5 mg QD n = 3) | Nausea, All (5 mg QD n = 3) | Neutrophil count decreased, All (5 mg QD n = 3) | Pain in extremity, All (5 mg QD n = 3) | Pain in extremity, Gr≥3 (5 mg QD n = 3) | WBC decreased, All (5 mg QD n = 3) | ALT increased, All (10 mg QD n = 3) | AST increased, All (10 mg QD n = 3) | Anemia (incl. hemoglobin decreased), All (10 mg QD n = 3) | Appetite decreased, All (10 mg QD n = 3) | Protein in urine, All (10 mg QD n = 3)
0 n (%): TEAEs leading to death, patients (120 mg QD n = 4) | TEAEs leading to dose reduction, patients (120 mg QD n = 4) | Vomiting TRAE, Gr≥3 (120 mg QD n = 4) | WBC decreased TRAE, Gr≥3 (120 mg QD n = 4) | ALT increased, All (2 mg QD n = 1) | ALT increased, Gr≥3 (2 mg QD n = 1) | AST increased, All (2 mg QD n = 1) | AST increased, Gr≥3 (2 mg QD n = 1) | Abdominal distension, All (2 mg QD n = 1) | Abdominal distension, Gr≥3 (2 mg QD n = 1) | Anemia (incl. hemoglobin decreased), All (2 mg QD n = 1) | Anemia (incl. hemoglobin decreased), Gr≥3 (2 mg QD n = 1) | Appetite decreased, Gr≥3 (2 mg QD n = 1) | Asthenia, Gr≥3 (2 mg QD n = 1) | Blood bilirubin increased, All (2 mg QD n = 1) | Blood bilirubin increased, Gr≥3 (2 mg QD n = 1) | Blood creatinine increased, All (2 mg QD n = 1) | Blood creatinine increased, Gr≥3 (2 mg QD n = 1) | Hypokalemia, Gr≥3 (2 mg QD n = 1) | Hyponatremia, All (2 mg QD n = 1) | Hyponatremia, Gr≥3 (2 mg QD n = 1) | Nausea, All (2 mg QD n = 1) | Nausea, Gr≥3 (2 mg QD n = 1) | Neutrophil count decreased, All (2 mg QD n = 1) | Neutrophil count decreased, Gr≥3 (2 mg QD n = 1) | Pain in extremity, All (2 mg QD n = 1) | Pain in extremity, Gr≥3 (2 mg QD n = 1) | Platelet count decreased, All (2 mg QD n = 1) | Platelet count decreased, Gr≥3 (2 mg QD n = 1) | Protein in urine, All (2 mg QD n = 1) | Protein in urine, Gr≥3 (2 mg QD n = 1) | Vomiting, All (2 mg QD n = 1) | Vomiting, Gr≥3 (2 mg QD n = 1) | WBC decreased, All (2 mg QD n = 1) | WBC decreased, Gr≥3 (2 mg QD n = 1) | ALT increased, All (5 mg QD n = 3) | ALT increased, Gr≥3 (5 mg QD n = 3) | AST increased, All (5 mg QD n = 3) | AST increased, Gr≥3 (5 mg QD n = 3) | Abdominal distension, Gr≥3 (5 mg QD n = 3) | Appetite decreased, Gr≥3 (5 mg QD n = 3) | Asthenia, Gr≥3 (5 mg QD n = 3) | Blood bilirubin increased, Gr≥3 (5 mg QD n = 3) | Blood creatinine increased, All (5 mg QD n = 3) | Blood creatinine increased, Gr≥3 (5 mg QD n = 3) | Hypokalemia, All (5 mg QD n = 3) | Hypokalemia, Gr≥3 (5 mg QD n = 3) | Hyponatremia, All (5 mg QD n = 3) | Hyponatremia, Gr≥3 (5 mg QD n = 3) | Nausea, Gr≥3 (5 mg QD n = 3) | Neutrophil count decreased, Gr≥3 (5 mg QD n = 3) | Platelet count decreased, Gr≥3 (5 mg QD n = 3) | Protein in urine, All (5 mg QD n = 3) | Protein in urine, Gr≥3 (5 mg QD n = 3) | Vomiting, All (5 mg QD n = 3) | Vomiting, Gr≥3 (5 mg QD n = 3) | WBC decreased, Gr≥3 (5 mg QD n = 3) | ALT increased, Gr≥3 (10 mg QD n = 3) | AST increased, Gr≥3 (10 mg QD n = 3) | Abdominal distension, All (10 mg QD n = 3) | Abdominal distension, Gr≥3 (10 mg QD n = 3) | Anemia (incl. hemoglobin decreased), Gr≥3 (10 mg QD n = 3) | Appetite decreased, Gr≥3 (10 mg QD n = 3) | Asthenia, All (10 mg QD n = 3) | Asthenia, Gr≥3 (10 mg QD n = 3) | Blood bilirubin increased, All (10 mg QD n = 3) | Blood bilirubin increased, Gr≥3 (10 mg QD n = 3) | Blood creatinine increased, All (10 mg QD n = 3) | Blood creatinine increased, Gr≥3 (10 mg QD n = 3) | Hypokalemia, All (10 mg QD n = 3) | Hypokalemia, Gr≥3 (10 mg QD n = 3) | Hyponatremia, All (10 mg QD n = 3) | Hyponatremia, Gr≥3 (10 mg QD n = 3) | Nausea, All (10 mg QD n = 3) | Nausea, Gr≥3 (10 mg QD n = 3) | Neutrophil count decreased, All (10 mg QD n = 3) | Neutrophil count decreased, Gr≥3 (10 mg QD n = 3) | Pain in extremity, All (10 mg QD n = 3) | Pain in extremity, Gr≥3 (10 mg QD n = 3) | Platelet count decreased, All (10 mg QD n = 3) | Platelet count decreased, Gr≥3 (10 mg QD n = 3) | Protein in urine, Gr≥3 (10 mg QD n = 3) | Vomiting, All (10 mg QD n = 3)
2 n ev: TEAEs leading to dose discontinuation, events (120 mg QD n = 4)
47 n ev: TRAEs, events (120 mg QD n = 4)
4 (100) n (%): TRAEs, patients (120 mg QD n = 4) | WBC decreased TRAE, All (120 mg QD n = 4)
1 (100) n (%): Appetite decreased, All (2 mg QD n = 1) | Asthenia, All (2 mg QD n = 1) | Hypokalemia, All (2 mg QD n = 1)
1 (25.0) n (%): TEAEs leading to dose discontinuation, patients (120 mg QD n = 4) | Vomiting TRAE, All (120 mg QD n = 4)
2 (66.7) n (%): Anemia (incl. hemoglobin decreased), All (5 mg QD n = 3) | Asthenia, All (5 mg QD n = 3) | Platelet count decreased, All (5 mg QD n = 3)
3 n ev: TEAEs leading to dose interruption, events (120 mg QD n = 4)
no grade ≥3 TRAEs: Grade ≥3 TRAEs (2-, 10-, 40-, and 60-mg dose groups)
6 n ev: TRAEs Grade ≥3, events (120 mg QD n = 4)
75.0%: Grade ≥3 TRAEs, incidence (highest) (120-mg dose group)
2 (50.0) n (%): TEAEs leading to dose interruption, patients (120 mg QD n = 4)
